Source: US12215129B2, “Antibacterial cyclopeptides targeting acinetobacter and other gram-negative pathogens” (priority 2020, dated 2025)
Converted amounts (≈) assume the structure as drawn. “And” between values parts separate entries of the source, which are not always exact repeats. Identical values can stand only once. Marks after values point to notes of the source that are not given here. Starred links: 1 amine or outer side, 2 acyl side, 3 side chain; linkers in the order of their positions; H or OH if unused. Positions of bridges follow the written chain, without caps; N, C: chain ends. Non-standard residues stand in square brackets, D forms with d. Residues, ends and D or L forms follow the SMILES beside them. *: point of attachment. dAsp(3R-OH) = N[C@@H](C(=O)O)[C@@H](O)C(=O)O; Palmitoleoyl = CCCCCC/C=C\CCCCCCCC(=O)*; X1 = NC[C@H](O)[C@@H](N[*:1])C(=O)[*:2]; X2 = CCC(C)(O)[C@H](N[*:1])C(=O)[*:2]; d(aIle) = CC[C@H](C)[C@@H](N)C(=O)O; Myristoyl = CCCCCCCCCCCCCC(=O)*; dOrn = NCCC[C@@H](N)C(=O)O; hSer = N[C@@H](CCO)C(=O)O

Assays:
[1] = test system: Staphylococcus aureus
[2] = test system: A. baylyi; assay type: cell-based, Acinetobacter baylyi; settings: for sensitivity of Δ1ptE A. baylyi strain: at 8 μg/mL; for MIC against A. baylyi compared with A. baumannii: nonpathogenic relative A. baylyi; for nature of growth inhibition: plating of inhibited wells from A. baylyi broth cultures
[3] = test system: Acinetobacter baumannii (ATCC 19606); settings: for MIC: ATCC 19606
[4] = test system: Enterococcus faecalis (ATCC 29212)
[5] = test system: Klebsiella pneumoniae (ATCC BAA-1705); assay type: cell-based
[6] = test system: A. baumannii ATCC 17978; experiment: Thigh infection neutropenic mouse model, efficacy (CFU/thigh); assay type: in vivo, Acinetobacter baumannii; settings: for Decrease (%) / Δ / CFU/thigh Time post inoculation 2, 26 h / Log (CFU/thigh) Time post inoculation 2, 26 h / CFU/thigh Time post inoculation 2, 26 h, Mean / Log (CFU/thigh) Time post inoculation 2, 26 h, Mean / Dilution (CFU/plate) 0 / Dilution (CFU/plate) 10^1 / Dilution (CFU/plate) 10^2 / Dilution (CFU/plate) 10^3 / Dilution (CFU/plate) 10^4 / Dilution (CFU/plate) 10^5 / Dilution (CFU/plate) 10^6: BID, q12h; for Decrease (%) / Δ / CFU/thigh Time post inoculation 2, 26 h / Log (CFU/thigh) Time post inoculation 2, 26 h / CFU/thigh Time post inoculation 2, 26 h, Mean / Log (CFU/thigh) Time post inoculation 2, 26 h, Mean: 26 h; for Decrease (%): decrease in counts compared to the vehicle group; for Δ: difference in bacterial counts relative to the baseline group (2 h initial counts); for CFU/thigh Time post inoculation 2, 26 h / Log (CFU/thigh) Time post inoculation 2, 26 h: individual animals; for CFU/thigh Time post inoculation 2, 26 h, Mean / Log (CFU/thigh) Time post inoculation 2, 26 h, Mean: mean of 5 animals; for Dilution (CFU/plate) 0 / Dilution (CFU/plate) 10^1 / Dilution (CFU/plate) 10^2 / Dilution (CFU/plate) 10^3 / Dilution (CFU/plate) 10^4 / Dilution (CFU/plate) 10^5 / Dilution (CFU/plate) 10^6: raw data; for Dilution (CFU/plate) 0: dilution 0, individual animals; for Dilution (CFU/plate) 10^1: dilution 10^1, individual animals; for Dilution (CFU/plate) 10^2: dilution 10^2, individual animals; for Dilution (CFU/plate) 10^3: dilution 10^3, individual animals; for Dilution (CFU/plate) 10^4: dilution 10^4, individual animals; for Dilution (CFU/plate) 10^5: dilution 10^5, individual animals; for Dilution (CFU/plate) 10^6: dilution 10^6, individual animals
[7] = test system: Escherichia coli; assay type: cell-based
[8] = test system: mouse red blood cell
[9] = test system: HEK-293 cells

CCCCCCCCCCCCCC(=O)N[C@H](CCCN)C(=O)N[C@@H](CO)C(=O)N[C@H](C(=O)N[C@@H](C(=O)N[C@@H](C(=O)N[C@@H]1C(=O)NCC(=O)N[C@@H](C(C)(O)CC)C(=O)N[C@H]([C@@H](C)CC)C(=O)N[C@@H](CCO)C(=O)N[C@@H](C)C(=O)N[C@H]([C@@H](C)CC)C(=O)N[C@@H](CCC(=O)O)C(=O)O[C@@H]1C)[C@@H](O)CN)[C@@H](O)C(=O)O)C(C)C (stereo partly drawn) [Compound 1, Turnercyclamycin A] (Myristoyl-[dOrn]SV[dAsp(3R-OH)][X1]TG[X2][d(aIle)][hSer]A[d(aIle)]E; ester 6-C)
MIC90 [1]: >64 µg/mL
decrease of Staphylococcus aureus growth [1]: 50%
sensitivity of Δ1ptE A. baylyi strain [2]: still sensitive
MIC against A. baylyi compared with A. baumannii [2]: same MIC
nature of growth inhibition [2]: bactericidal, not bacteriostatic
MIC90 [3]: 8 µg/mL (≈ 5.09 µM)
MIC [3]: 8 µg/mL (≈ 5.09 µM)
MIC90 [4]: >64 µg/mL
MIC90 [5]: 2 µg/mL (≈ 1.27 µM)
Decrease (%) ([6]; 6.25 mg/kg IV): 27%
Δ ([6]; 6.25 mg/kg IV): 2.27
CFU/thigh Time post inoculation 2, 26 h ([6]; 6.25 mg/kg IV): 4.59 × 10^7 CFU/thigh and 3.63 × 10^7 CFU/thigh and 4.62 × 10^7 CFU/thigh and 6.93 × 10^7 CFU/thigh and 7.71 × 10^7 CFU/thigh
Log (CFU/thigh) Time post inoculation 2, 26 h ([6]; 6.25 mg/kg IV): 7.66 Log (CFU/thigh) (2×) and 7.56 Log (CFU/thigh) and 7.84 Log (CFU/thigh) and 7.89 Log (CFU/thigh)
CFU/thigh Time post inoculation 2, 26 h, Mean ([6]; 6.25 mg/kg IV): 5.50 × 10^7 CFU/thigh
Log (CFU/thigh) Time post inoculation 2, 26 h, Mean ([6]; 6.25 mg/kg IV): 7.72 Log (CFU/thigh)
Dilution (CFU/plate) 0 ([6]; 6.25 mg/kg IV): >300 CFU/plate
Dilution (CFU/plate) 10^1 ([6]; 6.25 mg/kg IV): >300 CFU/plate
Dilution (CFU/plate) 10^2 ([6]; 6.25 mg/kg IV): >300 CFU/plate
Dilution (CFU/plate) 10^3 ([6]; 6.25 mg/kg IV): >300 CFU/plate
Dilution (CFU/plate) 10^4 ([6]; 6.25 mg/kg IV): 153 CFU/plate and 121 CFU/plate and 154 CFU/plate and 231 CFU/plate and 257 CFU/plate
Dilution (CFU/plate) 10^5 ([6]; 6.25 mg/kg IV): 21 CFU/plate and 9 CFU/plate and 16 CFU/plate and 24 CFU/plate and 26 CFU/plate
Dilution (CFU/plate) 10^6 ([6]; 6.25 mg/kg IV): 3 CFU/plate (2×) and 1 CFU/plate and 0 CFU/plate and 2 CFU/plate
decrease in bacterial CFU/thigh ([6]; 12.5 mg/kg IV twice daily, p<0.05, CFU at 26 hours): 98%
Decrease (%) ([6]; 12.5 mg/kg IV): 98%
Δ ([6]; 12.5 mg/kg IV): 0.10
CFU/thigh Time post inoculation 2, 26 h ([6]; 12.5 mg/kg IV): 5.67 × 10^5 CFU/thigh and 7.02 × 10^6 CFU/thigh and 7.89 × 10^5 CFU/thigh and 1.32 × 10^5 CFU/thigh and 1.35 × 10^4 CFU/thigh
Log (CFU/thigh) Time post inoculation 2, 26 h ([6]; 12.5 mg/kg IV): 5.75 Log (CFU/thigh) and 6.85 Log (CFU/thigh) and 5.90 Log (CFU/thigh) and 5.12 Log (CFU/thigh) and 4.13 Log (CFU/thigh)
CFU/thigh Time post inoculation 2, 26 h, Mean ([6]; 12.5 mg/kg IV): 1.70 × 10^6 CFU/thigh
Log (CFU/thigh) Time post inoculation 2, 26 h, Mean ([6]; 12.5 mg/kg IV): 5.55* Log (CFU/thigh)
Dilution (CFU/plate) 0 ([6]; 12.5 mg/kg IV): >300 CFU/plate
Dilution (CFU/plate) 10^1 ([6]; 12.5 mg/kg IV): >300 CFU/plate (4×) and 45 CFU/plate
Dilution (CFU/plate) 10^2 ([6]; 12.5 mg/kg IV): 189 CFU/plate and >300 CFU/plate and 263 CFU/plate and 44 CFU/plate and 4 CFU/plate
Dilution (CFU/plate) 10^3 ([6]; 12.5 mg/kg IV): 12 CFU/plate and 234 CFU/plate and 24 CFU/plate and 2 CFU/plate and 0 CFU/plate
Dilution (CFU/plate) 10^4 ([6]; 12.5 mg/kg IV): 0 CFU/plate (2×) and 1 CFU/plate and 28 CFU/plate and 2 CFU/plate
Dilution (CFU/plate) 10^5 ([6]; 12.5 mg/kg IV): 0 CFU/plate (4×) and 1 CFU/plate
Dilution (CFU/plate) 10^6 ([6]; 12.5 mg/kg IV): 0 CFU/plate
clearing of bacterial CFU/thigh ([6]; 25 mg/kg IV twice daily, CFU at 26 hours): 99.99%
Decrease (%) ([6]; 25 mg/kg IV): 100%
Δ ([6]; 25 mg/kg IV): −1.65^#
CFU/thigh Time post inoculation 2, 26 h ([6]; 25 mg/kg IV): 5.91 × 10^3 CFU/thigh and 7.68 × 10^3 CFU/thigh and 8.76 × 10^3 CFU/thigh and 1.38 × 10^4 CFU/thigh and 1.89 × 10^3 CFU/thigh
Log (CFU/thigh) Time post inoculation 2, 26 h ([6]; 25 mg/kg IV): 3.77 Log (CFU/thigh) and 3.89 Log (CFU/thigh) and 3.94 Log (CFU/thigh) and 4.14 Log (CFU/thigh) and 3.28 Log (CFU/thigh)
CFU/thigh Time post inoculation 2, 26 h, Mean ([6]; 25 mg/kg IV): 7.61 × 10^3 CFU/thigh
Log (CFU/thigh) Time post inoculation 2, 26 h, Mean ([6]; 25 mg/kg IV): 3.80* Log (CFU/thigh)
Dilution (CFU/plate) 0 ([6]; 25 mg/kg IV): 197 CFU/plate and 256 CFU/plate and 292 CFU/plate and >300 CFU/plate and 63 CFU/plate
Dilution (CFU/plate) 10^1 ([6]; 25 mg/kg IV): 26 CFU/plate and 32 CFU/plate and 29 CFU/plate and 46 CFU/plate and 8 CFU/plate
Dilution (CFU/plate) 10^2 ([6]; 25 mg/kg IV): 3 CFU/plate (2×) and 1 CFU/plate (2×) and 4 CFU/plate
Dilution (CFU/plate) 10^3 ([6]; 25 mg/kg IV): 0 CFU/plate
Dilution (CFU/plate) 10^4 ([6]; 25 mg/kg IV): 0 CFU/plate
Dilution (CFU/plate) 10^5 ([6]; 25 mg/kg IV): 0 CFU/plate
Dilution (CFU/plate) 10^6 ([6]; 25 mg/kg IV): 0 CFU/plate
MIC90 [7]: 1 µg/mL (≈ 0.636 µM)

CCCCCC/C=C\CCCCCCCC(=O)N[C@H](CCCN)C(=O)N[C@@H](CO)C(=O)N[C@H](C(=O)N[C@@H](C(=O)N[C@@H](C(=O)N[C@@H]1C(=O)NCC(=O)N[C@@H](C(C)(O)CC)C(=O)N[C@H]([C@@H](C)CC)C(=O)N[C@@H](CCO)C(=O)N[C@@H](C)C(=O)N[C@H]([C@@H](C)CC)C(=O)N[C@@H](CCC(=O)O)C(=O)O[C@@H]1C)[C@@H](O)CN)[C@@H](O)C(=O)O)C(C)C (stereo partly drawn) [Compound 2, Turnercyclamycin B] (Palmitoleoyl-[dOrn]SV[dAsp(3R-OH)][X1]TG[X2][d(aIle)][hSer]A[d(aIle)]E; ester 6-C)
MIC90 [1]: >64 µg/mL
decrease of Staphylococcus aureus growth [1]: 50%
hemolytic activity, no activity up to [8]: > 64 µg/mL
sensitivity of Δ1ptE A. baylyi strain [2]: still sensitive
MIC against A. baylyi compared with A. baumannii [2]: same MIC
nature of growth inhibition [2]: bactericidal, not bacteriostatic
MIC90 [3]: 8 µg/mL (≈ 5 µM)
MIC [3]: 8 µg/mL (≈ 5 µM)
MIC90 [4]: >64 µg/mL
IC50 against HEK-293 [9]: failed to calculate an IC50 value
MIC90 [5]: 2 µg/mL (≈ 1.25 µM)
MIC90 [7]: 1 µg/mL (≈ 0.625 µM)
